ChEMBL document CHEMBL1687764, “Contribution of BlaA and BlaB beta-lactamases to antibiotic susceptibility of Yersinia enterocolitica biovar 1B” (2010)
Values after ≈ are worked out from the molar mass of the structure shown.

Legend:
Type in all cases: functional
Yersinia enterocolitica [1] = assay: Antimicrobial activity against beta-lactamase A and B-deficient Yersinia enterocolitica GY5718 after 20 hrs by Etest; details: GY5718, 20 h
Yersinia enterocolitica [2] = assay: Antimicrobial activity against beta-lactamase B-deficient Yersinia enterocolitica GY5542 after 20 hrs by Etest; details: GY5542, 20 h
Yersinia enterocolitica [3] = assay: Antimicrobial activity against Yersinia enterocolitica Biovar 1B 8081 after 20 hrs by Etest; details: Biovar 1B 8081, 20 h
Yersinia enterocolitica [4] = assay: Antimicrobial activity against beta-lactamase A-deficient Yersinia enterocolitica GY5717 after 20 hrs by Etest; details: GY5717, 20 h

SMILES | MIC (Yersinia enterocolitica [1]) [µg/mL] | MIC (Yersinia enterocolitica [2]) [µg/mL] | MIC (Yersinia enterocolitica [3]) [µg/mL] | MIC (Yersinia enterocolitica [4]) [µg/mL]
CC1(C)S[C@@H]2[C@H](NC(=O)[C@H](N)c3ccc(O)cc3)C(=O)N2[C@H]1C(=O)O [AMOXICILLIN] | 0.38 (≈ 1.04 µM) | 24 (≈ 65.7 µM) | 24 (≈ 65.7 µM) | 1.5 (≈ 4.1 µM)
CC1(C)S[C@@H]2[C@H](NC(=O)[C@H](N)c3ccccc3)C(=O)N2[C@H]1C(=O)O [AMPICILLIN] | 0.19 (≈ 0.544 µM) | 4 (≈ 11.4 µM) | 4 (≈ 11.4 µM) | 0.5 (≈ 1.43 µM)
CO/N=C(\C(=O)N[C@@H]1C(=O)N2C(C(=O)O)=C(COC(C)=O)CS[C@H]12)c1csc(N)n1 [CEFOTAXIME] | 0.012 (≈ 0.0263 µM) | 0.016 (≈ 0.0351 µM) | 0.023 (≈ 0.0505 µM) | 0.023 (≈ 0.0505 µM)
CO/N=C(\C(=O)N[C@@H]1C(=O)N2C(C(=O)O)=C(CSc3nc(=O)c(O)nn3C)CS[C@H]12)c1csc(N)n1 [CEFTRIAXONE] | 0.012 (≈ 0.0216 µM) | 0.016 (≈ 0.0289 µM) | 0.023 (≈ 0.0415 µM) | 0.016 (≈ 0.0289 µM)
CO/N=C(\C(=O)N[C@@H]1C(=O)N2C(C(=O)O)=C(COC(N)=O)CS[C@H]12)c1ccco1 [CEFUROXIME] | 0.5 (≈ 1.18 µM) | 0.75 (≈ 1.77 µM) | 0.75 (≈ 1.77 µM) | 0.5 (≈ 1.18 µM)
C[C@@H](O)[C@H]1C(=O)N2C(C(=O)O)=C(SCCNC=N)C[C@H]12 [IMIPENEM ANHYDROUS] | 0.25 (≈ 0.835 µM) | 0.25 (≈ 0.835 µM) | 0.25 (≈ 0.835 µM) | 0.25 (≈ 0.835 µM)
CC1(C)S[C@@H]2[C@H](NC(=O)Cc3ccccc3)C(=O)N2[C@H]1C(=O)O [PENICILLIN G] | 1 (≈ 2.99 µM) | 24 (≈ 71.8 µM) | 24 (≈ 71.8 µM) | 4 (≈ 12 µM)
CCN1CCN(C(=O)N[C@@H](C(=O)N[C@@H]2C(=O)N3[C@@H]2SC(C)(C)[C@@H]3C(=O)O)c2ccccc2)C(=O)C1=O [PIPERACILLIN] | 0.094 (≈ 0.182 µM) | 0.75 (≈ 1.45 µM) | 0.75 (≈ 1.45 µM) | 0.19 (≈ 0.367 µM)
